Results reported in patent US6867213B2, “(2S)-2-(adamantan-1-ylmethoxycarbonylamino)-3-(4-(2-(1,4,5,6-tetrhydropyrimidin-2-ylcarbamoyl)ethyl)benzoylamino)propionic acid isopropyl ester, its preparation and its use” (Aventis Pharma Deutschland GmbH, priority 2000, dated 2005).
Where a name gives a salt, the structure may show the parent alone.

Experiments:
[1] = test system: thyroparathyroidectomized (TPTX) rats; test: PTH-induced hypercalcemia in the TPTX rat model of bone resorption; type: in vivo, rat (male Sprague Dawley); settings: PTH treated TPTX rats; s.c. twice at 30 mg/kg, at time 0 and 3 h after start of PTH infusion; serum collected at 6 hours
Text: 3) Pharmacological Testing: PTH-Induced Hypercalcemia in the TPTX Rat Model of Bone Resorption
In this in vivo model a stimulation of bone resorption is induced in thyroparathyroidectomized (TPTX) rats by the infusion of parathyroid hormone (PTH). The changes in bone resorption are monitored by measuring the serum calcium concentration which is directly related to the extent of bone resorption.
Male Sprague Dawley rats (OFA-IFFA CREDO, France) weighting 150-200 g were thyroparathyroidectomized by the supplier. The rats were allowed free access to a standard commercial pelleted diet containing 7 g Ca/kg (UAR) and Eau de Volvic water. The success of thyroparathyroidectomy was tested by measuring serum calcium concentrations 8 days after operation in overnight fasted animals. Rats were considered as TPTX when the serum calcium level was <80 mg/l.
For treatment with PTH, rat PTH(1-34) (Bachem) was dissolved in 0.15 M sodium chloride solution containing 2% Cys-HCl and delivered via osmotic minipumps (ALZET 2001D) at 200 pmol/kg/h. […]
Serum total calcium concentrations (=calcemia) were measured colorimetrically (Ciba-Corning) using a IEMS Labsystems microplate reader at 540 nm. The differences between the mean values of calcemia in the groups were analysed for variance and by Dunnett's test. The activity of the test compound was calculated as % effect according to the formula: [formula]

Question: For `CC(C)OC(=O)[C@H](CNC(=O)c1ccc(CCC(=O)NC2=NCCCN2)cc1)NC(=O)OCC12CC3CC(CC(C3)C1)C2` (as salt: hydrochloride) [formula IIc, (2S)-2-(Adamantan-1-ylmethoxycarbonylamino)-3-(4-(2-(1,4,5,6-tetrahydropyrimidin-2-ylcarbamoyl)ethyl)benzoylamino)propionic Acid Isopropyl Ester Hydrochloride], which melting point is on record?
Answer: Its melting point is 208 to 210 °C.

Question: With `CC(C)OC(=O)[C@H](CNC(=O)c1ccc(CCC(=O)NC2=NCCCN2)cc1)NC(=O)OCC12CC3CC(CC(C3)C1)C2` [formula IIc, (2S)-2-(Adamantan-1-ylmethoxycarbonylamino)-3-(4-(2-(1,4,5,6-tetrahydropyrimidin-2-ylcarbamoyl)ethyl)benzoylamino)propionic Acid Isopropyl Ester Hydrochloride] as the compound, how does the “% effect (on calcemia = serum total calcium concentration)” value [1] read?
Answer: The value was −97%.
